How the values were obtained:
[1] = shake flask on a mixture of 185; loss from the water phase only; LC-QTOF peak areas; details: room
[2] = shake flask on a mixture of 185; loss from the water phase only; LC-Orbitrap peak areas; details: room

Compound | log partition 1-octanol / HPLC water, unbuffered, traces of methanol / DMSO [2] [log10] | log partition butyl acetate / HPLC water, unbuffered, traces of methanol / DMSO [2] [log10] | log partition chloroform / HPLC water, unbuffered, traces of methanol / DMSO [2] [log10] | log partition dichloromethane / HPLC water, unbuffered, traces of methanol / DMSO [2] [log10] | log partition oleylalcohol / HPLC water, unbuffered, traces of methanol / DMSO [2] [log10] | log partition toluene / HPLC water, unbuffered, traces of methanol / DMSO [2] [log10] | log partition cyclohexane / HPLC water, unbuffered, traces of methanol / DMSO [2] [log10] | log partition n-hexane / HPLC water, unbuffered, traces of methanol / DMSO [2] [log10] | log partition n-octane / HPLC water, unbuffered, traces of methanol / DMSO [2] [log10] | log partition n-undecane / HPLC water, unbuffered, traces of methanol / DMSO [2] [log10] | log partition 1-octanol / HPLC water, unbuffered, traces of methanol / DMSO [1] [log10] | log partition butyl acetate / HPLC water, unbuffered, traces of methanol / DMSO [1] [log10] | log partition chloroform / HPLC water, unbuffered, traces of methanol / DMSO [1] [log10] | log partition dichloromethane / HPLC water, unbuffered, traces of methanol / DMSO [1] [log10] | log partition oleylalcohol / HPLC water, unbuffered, traces of methanol / DMSO [1] [log10] | log partition toluene / HPLC water, unbuffered, traces of methanol / DMSO [1] [log10] | log partition cyclohexane / HPLC water, unbuffered, traces of methanol / DMSO [1] [log10] | log partition n-hexane / HPLC water, unbuffered, traces of methanol / DMSO [1] [log10] | log partition n-octane / HPLC water, unbuffered, traces of methanol / DMSO [1] [log10] | log partition n-undecane / HPLC water, unbuffered, traces of methanol / DMSO [1] [log10]
C#CC(C)(C)NC(=O)c1cc(Cl)cc(Cl)c1 | 2.462 | 2.969 | 1.414 | 3 | 2.211 | 2.779 | – | – | – | – | 2.331 | 2.368 | 2.908 | 2.85 | 2.008 | 2.121 | – | – | – | –
c1coc(-c2nc3ccccc3[nH]2)c1 | 1.137 | 1.189 | 0.9478 | 1.025 | 1.389 | 0.5283 | -0.1735 | -0.2475 | -0.314 | -0.8377 | 1.514 | 1.818 | 1.228 | 1.187 | 1.545 | 0.6693 | -0.8199 | -1.048 | -0.9024 | -1.111
CC(C)C1(C)N=C(c2nc3ccccc3cc2C(=O)O)NC1=O (centres unmarked) | 0.3193 | -0.573 | -0.8011 | -0.4847 | -0.2597 | -1.419 | -1.428 | -1.375 | -1.474 | -1.445 | -0.1003 | 0.3218 | -1.426 | -0.4187 | 0.635 | -0.5162 | -1.269 | -0.9732 | -1.466 | -1.153
Cc1cc(C)nc(NS(=O)(=O)c2ccc(N)cc2)n1 | -0.03015 | -0.1328 | 0.1061 | -0.3816 | -0.3433 | -1.077 | -0.9043 | -0.631 | -0.6854 | -0.8904 | -0.08641 | -0.1162 | -0.2658 | -0.5411 | -0.5276 | -1.085 | -0.9757 | -1.336 | -1.319 | -1.455

Second part, led by results:

log partition 1-octanol / HPLC water, unbuffered, traces of methanol / DMSO [2] [log10] | log partition butyl acetate / HPLC water, unbuffered, traces of methanol / DMSO [2] [log10] | log partition chloroform / HPLC water, unbuffered, traces of methanol / DMSO [2] [log10] | log partition dichloromethane / HPLC water, unbuffered, traces of methanol / DMSO [2] [log10] | log partition oleylalcohol / HPLC water, unbuffered, traces of methanol / DMSO [2] [log10] | log partition toluene / HPLC water, unbuffered, traces of methanol / DMSO [2] [log10] | log partition cyclohexane / HPLC water, unbuffered, traces of methanol / DMSO [2] [log10] | log partition n-hexane / HPLC water, unbuffered, traces of methanol / DMSO [2] [log10] | log partition n-octane / HPLC water, unbuffered, traces of methanol / DMSO [2] [log10] | log partition n-undecane / HPLC water, unbuffered, traces of methanol / DMSO [2] [log10] | Compound | log partition 1-octanol / HPLC water, unbuffered, traces of methanol / DMSO [1] [log10] | log partition butyl acetate / HPLC water, unbuffered, traces of methanol / DMSO [1] [log10] | log partition chloroform / HPLC water, unbuffered, traces of methanol / DMSO [1] [log10] | log partition dichloromethane / HPLC water, unbuffered, traces of methanol / DMSO [1] [log10] | log partition oleylalcohol / HPLC water, unbuffered, traces of methanol / DMSO [1] [log10] | log partition toluene / HPLC water, unbuffered, traces of methanol / DMSO [1] [log10] | log partition cyclohexane / HPLC water, unbuffered, traces of methanol / DMSO [1] [log10] | log partition n-hexane / HPLC water, unbuffered, traces of methanol / DMSO [1] [log10] | log partition n-octane / HPLC water, unbuffered, traces of methanol / DMSO [1] [log10] | log partition n-undecane / HPLC water, unbuffered, traces of methanol / DMSO [1] [log10]
1.279 | 1.476 | 1.242 | 1.399 | 1.396 | 1.5 | 1.195 | 1.051 | 1.355 | 0.8718 | CCCOC(=O)c1ccc(C(=O)OCCC)nc1 | 2.274 | 2.305 | 2.347 | 2.554 | 2.412 | 2.485 | 2.074 | 2.244 | 2.086 | 2.019
1.544 | 1.55 | 1.889 | 1.493 | 0.7925 | 1.17 | 2.061 | 1.296 | 1.432 | 1.36 | CCc1ccc(C(=O)NN(C(=O)c2cc(C)cc(C)c2)C(C)(C)C)cc1 | 1.362 | 1.733 | 1.756 | 1.824 | 1.649 | 1.989 | 1.284 | 1.035 | 0.9128 | 0.8541
1.133 | 4.432 | 2.334 | 3.927 | 1.914 | -0.7173 | -0.5049 | -1.029 | -0.5477 | -0.5963 | CCCCOC(=O)C(C)Oc1ccc(Oc2ccc(C(F)(F)F)cn2)cc1 (centres unmarked) | 1.531 | 1.572 | 2.874 | 2.183 | 1.771 | 2.12 | 2.387 | 2.824 | 2.349 | 2.336
1.455 | 1.635 | 1.002 | 1.347 | 1.068 | 0.7892 | 0.009613 | -0.1226 | -0.1369 | -0.387 | Cc1oncc1C(=O)Nc1ccc(C(F)(F)F)cc1 | 2.576 | 3.034 | 2.805 | 2.511 | 2.816 | 2.381 | 0.2033 | 0.07872 | 0.112 | 0.08618
